Key:
[1] = tested on: barnyardgrass; test: Test A preemergence; assay type: in vivo, Echinochloa crus-galli; details: for Barnyardgrass plant response rating (0 to 100 scale): 31 g ai/ha; for Plant response rating, Barnyardgrass: 125 g ai/ha, 0 to 100 scale where 0 is no effect and 100 is complete control
Summary of the method: (§1)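 Visual 0–100 rating (100 = complete control) taken about 10 d post-treatment relative to untreated checks. Preemergence: directed soil spray on sown loam/sand pots. Postemergence: seedlings 2–10 cm, 1–2 leaf. Non-phytotoxic solvent formulation with surfactant.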

[2] = tested on: kochia; test: Test A preemergence; assay type: in vivo, Kochia scoparia; details: for Kochia plant response rating (0 to 100 scale): 31 g ai/ha; for Plant response rating, Kochia: 125 g ai/ha, 0 to 100 scale where 0 is no effect and 100 is complete control
Summary of the method: as §1

[3] = tested on: ragweed; test: Test A preemergence; assay type: in vivo, Ambrosia elatior; details: for Ragweed plant response rating (0 to 100 scale): 31 g ai/ha; for Plant response rating, Ragweed: 125 g ai/ha, 0 to 100 scale where 0 is no effect and 100 is complete control
Summary of the method: as §1

[4] = tested on: Italian ryegrass; test: Test A preemergence; assay type: in vivo, Lolium multiflorum; details: for Ryegrass, Italian plant response rating (0 to 100 scale): 31 g ai/ha; for Plant response rating, Ryegrass, Italian: 125 g ai/ha, 0 to 100 scale where 0 is no effect and 100 is complete control
Description: (§2) Seeds of plant species selected from barnyardgrass (Echinochloa crus-galli), kochia (Kochia scoparia), ragweed (common ragweed, Ambrosia elatior), Italian ryegrass (Lolium multiflorum), large (Lg) crabgrass (Digitaria sanguinalis), giant foxtail (Setaria faberii), morningglory (Ipomoea spp.), pigweed (Amaranthus retroflexus), velvetleaf (Abutilon theophrasti), wheat (Triticum aestivum), and corn (Zea mays) were planted into a blend of loam soil and sand and treated preemergence with a directed soil spray using test chemicals formulated in a non-phytotoxic solvent mixture which included a surfactant.
(§3) At the same time, plants selected from these crop and weed species and also blackgrass (Alopecurus myosuroides), and galium (catchweed bedstraw, Galium aparine) were planted in pots containing the same blend of loam soil and sand and treated with postemergence applications of test chemicals formulated in the same manner. Plants ranged in height from 2 to 10 cm and were in the one- to two-leaf stage for the postemergence treatment. Treated plants and untreated controls were maintained in a greenhouse for approximately 10 days, after which time all treated plants were compared to untreated controls and visually evaluated for injury. Plant response ratings, summarized in Table A, are based on a 0 to 100 scale where 0 is no effect and 100 is complete control. A dash (-) response means no test result.

[5] = tested on: giant foxtail; test: Test A preemergence; assay type: in vivo, Setaria faberii; details: for Foxtail, Giant plant response rating (0 to 100 scale): 31 g ai/ha; for Plant response rating, Foxtail, Giant: 125 g ai/ha, 0 to 100 scale where 0 is no effect and 100 is complete control
Summary of the method: as §1

[6] = tested on: pigweed; test: Test A preemergence; assay type: in vivo, Amaranthus retroflexus; details: for Pigweed plant response rating (0 to 100 scale): 31 g ai/ha; for Plant response rating, Pigweed: 125 g ai/ha, 0 to 100 scale where 0 is no effect and 100 is complete control
Summary of the method: as §1

[7] = tested on: barnyardgrass; test: Test A postemergence; assay type: in vivo, Echinochloa crus-galli
Summary of the method: as §1

[8] = tested on: kochia; test: Test A postemergence; assay type: in vivo, Kochia scoparia
Summary of the method: as §1

[9] = tested on: ragweed; test: Test A postemergence; assay type: in vivo, Ambrosia elatior; details: 0 to 100 scale, 0 no effect, 100 complete control
Description: as §2, §3

[10] = tested on: Italian ryegrass; test: Test A postemergence; assay type: in vivo, Lolium multiflorum; details: 0 to 100 scale, 0 no effect, 100 complete control
Summary of the method: as §1

[11] = tested on: giant foxtail; test: Test A postemergence; assay type: in vivo, Setaria faberii
Summary of the method: as §1

[12] = tested on: pigweed; test: Test A postemergence; assay type: in vivo, Amaranthus retroflexus; details: 0 to 100 scale, 0 no effect, 100 complete control
Summary of the method: as §1

[13] = tested on: wheat; test: Test A postemergence; assay type: in vivo, Triticum aestivum; details: 0 to 100 scale, 0 no effect, 100 complete control
Summary of the method: as §1

[14] = tested on: corn; test: Test A postemergence; assay type: in vivo, Zea mays
Summary of the method: as §1

[15] = tested on: blackgrass; test: Test A postemergence; assay type: in vivo, Alopecurus myosuroides
Description: as §2, §3

[16] = tested on: galium; test: Test A postemergence; assay type: in vivo, Galium aparine
Description: as §2, §3

[17] = tested on: rice; test: Test B flooded paddy test; assay type: in vivo, Oryza sativa; details: Flood, 250 g ai/ha; 0 to 100 scale where 0 is no effect and 100 is complete control
Summary of the method: (§4)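 Post-emergence paddy-water application at the 2-leaf stage, with 3 cm flood kept for the whole test. Response was judged visually relative to controls after 13 to 15 greenhouse days, 0 indicating no effect and 100 complete control.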

[18] = tested on: sedge, umbrella; test: Test B flooded paddy test; assay type: in vivo, Cyperus difformis; details: Flood, 250 g ai/ha; 0 to 100 scale where 0 is no effect and 100 is complete control
Summary of the method: as §4

[19] = tested on: Heteranthera limosa; test: Test B flooded paddy test; assay type: in vivo; details: Flood, 250 g ai/ha; 0 to 100 scale where 0 is no effect and 100 is complete control
Summary of the method: as §4

[20] = tested on: barnyardgrass; test: Test B flooded paddy test; assay type: in vivo, Echinochloa crus-galli; details: Flood, 250 g ai/ha; 0 to 100 scale where 0 is no effect and 100 is complete control
Summary of the method: as §4

[21] = 31 g ai/ha, 0 to 100 scale, 0 no effect, 100 complete control
[22] = 125 g ai/ha, 0 to 100 scale where 0 is no effect and 100 is complete control
[23] = 1000 g ai/ha, 0 to 100 scale, 0 no effect, 100 complete control, approx. 10 days
[24] = 1000 g ai/ha, 0 to 100 scale, 0 no effect, 100 complete control

Row | SMILES | Barnyardgrass plant response rating (0 to 100 scale) [1] | Plant response rating, Barnyardgrass [1] | Kochia plant response rating (0 to 100 scale) [2] | Plant response rating, Kochia [2] | Ragweed plant response rating (0 to 100 scale) [3] | Plant response rating, Ragweed [3] | Ryegrass, Italian plant response rating (0 to 100 scale) [4] | Plant response rating, Ryegrass, Italian [4] | Foxtail, Giant plant response rating (0 to 100 scale) [5] | Plant response rating, Foxtail, Giant [5] | Pigweed plant response rating (0 to 100 scale) [6] | Plant response rating, Pigweed [6] | Plant response rating, Barnyardgrass [7, 21] | Plant response rating, Barnyardgrass [7, 22] | Plant response rating, Kochia [8, 21] | Plant response rating, Kochia [8, 22] | Plant response rating, Ragweed ([9]; 31 g ai/ha) | Plant response rating, Ryegrass, Italian ([10]; 31 g ai/ha) | Plant response rating, Foxtail, Giant [11, 21] | Plant response rating, Foxtail, Giant [11, 22] | other results
1 | N#Cc1cccc(Oc2ncc(Cl)cn2)c1-n1cc(OCC(F)F)cn1 [Compound 99] | 80 | 90 | 100 | 100 | 70 | 90 | 0 | 30 | 100 | 100 | 100 | 100 | 100 | 100 | 100 | 100 | 30 | 20 | 90 | 100 | Plant response rating, Pigweed ([12]; 31 g ai/ha): 100; Plant response rating, Wheat ([13]; 31 g ai/ha): 50; Plant response rating, Corn [14, 21]: 20; Plant response rating, Corn [14, 22]: 90; Plant response rating, Blackgrass [15, 21]: 50; Plant response rating, Blackgrass [15, 22]: 90; Plant response rating, Galium [16, 21]: 90; Plant response rating, Galium [16, 22]: 100; Plant response rating, Rice [17]: 0; Plant response rating, Sedge, Umbrella [18]: 0; Plant response rating, Ducksalad [19]: 0; Plant response rating, Barnyardgrass [20]: 0
2 | CC(C)Oc1cnn(-c2c(Cl)cccc2Oc2ncc(Cl)cn2)c1 [Compound 103] | 0 | 0 | 0 | 0 | 0 | 0 | 0 | 0 | 0 | 0 | 0 | 0 | 0 | 0 | 0 | 0 | 0 | 0 | 0 | 0 | Plant response rating, Pigweed ([12]; 31 g ai/ha): 0; Plant response rating, Wheat ([13]; 31 g ai/ha): 0; Plant response rating, Corn [14, 21]: 0; Plant response rating, Corn [14, 22]: 0; Plant response rating, Blackgrass [15, 21]: 0; Plant response rating, Blackgrass [15, 22]: 0; Plant response rating, Galium [16, 21]: 0; Plant response rating, Galium [16, 22]: 0; Plant response rating, Rice [17]: 0; Plant response rating, Sedge, Umbrella [18]: 0; Plant response rating, Ducksalad [19]: 0; Plant response rating, Barnyardgrass [20]: 0
3 | CCOC(=O)c1cn(-c2ccccc2Oc2ncc(Cl)cn2)nn1 [Compound 302] |  |  |  |  |  |  |  |  |  |  |  |  |  |  |  |  |  |  |  |  | Barnyardgrass plant response rating [1, 23]: 0; Kochia plant response rating [2, 23]: 0; Ragweed plant response rating [3, 23]: 0; Ryegrass, Italian plant response rating [4, 23]: 0; Foxtail, Giant plant response rating [5, 23]: 0; Pigweed plant response rating [6, 23]: 0; Plant response rating, Barnyardgrass [7, 24]: 0; Plant response rating, Kochia [8, 24]: 0; Plant response rating, Ragweed ([9]; 1000 g ai/ha): 0; Plant response rating, Ryegrass, Italian ([10]; 1000 g ai/ha): 0; Plant response rating, Foxtail, Giant [11, 24]: 0; Plant response rating, Pigweed ([12]; 1000 g ai/ha): 0; Plant response rating, Wheat ([13]; 1000 g ai/ha): 0; Plant response rating, Corn [14, 24]: 0; Plant response rating, Blackgrass [15, 24]: 0; Plant response rating, Galium [16, 24]: 0
